Results reported in patent publication US20100093536A1, “CONTROL OF GRASSY WEEDS WITH VINYLGLYCINES AND VINYLGLYCINE-PRODUCING ORGANISMS” (THE STATE OF OREGON ACTING BY AND THROUGH THE STATE BOARD …, priority 2008, published 2010).
Entries after “also recorded” stand apart in the source; their conditions may differ.

Assays:
[1] = test system: Poa annua (annual bluegrass) seeds; assay: Standard GAF Bioassay System (Standard Poa Bioassay), seed germination scored after 7 days; format: in vivo; parameters: key to GERMINATION SCORE IN THE POA BIOASSAY (±Standard Error of the Mean) / GERMINATION SCORE (±Standard Error of the Mean): germination score, 0 = no germination to 4.0 = first true leaf emerged; details: for GAF-like activity in the Standard Poa Bioassay System, in words: pure compounds; for GERMINATION SCORE: purified GAF
Protocol: The seed of Poa annua (or other test seeds) were surface-sterilized by placing two to five grams of seeds in a 50 ml glass beaker, covering the seeds with a 50% (v/v) solution of H2SO4, and stirring vigorously for 5 minutes. The seed/acid mixture was filtered through a Gooch crucible and repeatedly rinsed with tap water to remove residual acid. The seeds were then placed in a beaker and covered with bleach (Clorox®, NaOCl, 5.25%) containing 1% (v/v) polyoxethylene sorbitan monolaurate (Tween®-20). The seeds were stirred for 5 minutes and then repeatedly rinsed with sterile deionized water and placed in a sterile Petri dish. The seeds were used immediately while wet or dried (spread in a thin layer and allowed to dry under a laminar flow hood with the Petri dish lid ajar for 4 to 8 hours) to prevent premature germination.
Bioassays for GAF activity were performed with Poa annua (annual bluegrass) seeds unless otherwise indicated. For each concentration of each test solution, 200 μl aliquots of solution were distributed to each of three wells of a sterile Costar® forty-eight well tissue culture plate (Corning® Costar® Number 3548). Three surface-sterilized Poa annua seeds were aseptically transferred to each well and submerged in the liquid, providing a total of nine observations for each concentration of each solution tested. The lid of the tissue culture plate was sealed with Parafilm® and the plate was placed in a germinator at 20° C. (8 hour day length at a light intensity of 50 μmol/m^2/s, 16 hour dark period) for seven days. Germination was scored on the basis of the following four-point system: • Score 0: No visible signs of germination. • Score 0.5: Seed coat split but plumule and coleorhiza are not visible. • Score 1.0: Plumule and coleorhiza visible. Plumule chlorotic and shorter than length of seed. Root not yet visible. • Score 1.5: Plumule still shorter than length of seed, but root is clearly visible. • Score 2.0: Plumule approximately equal in length to the seed. Root elongated. • Score 2.5: Plumule obviously longer than length of seed. First true leaf still enclosed in coleoptile. • Score 3.0: First true leaf emerged from coleoptile and green. Emerged portion of the leaf is obviously shorter than the coleoptile. • Score 3.5: First true leaf emerged from coleoptile and green. Emerged portion of the leaf is approximately equal in length to the coleoptile. • Score 4.0: First true leaf emerged from coleoptile and green. Emerged portion of the leaf is obviously longer than the coleoptile.

Poa annua seeds [2] = assay: Soil-based test for GAF activity, Poa annua only; format: in vivo; details: sprayed twice with 50 mL in 0.1% Tween 20, evaluated 12 days after first treatment
Protocol: (§1) Soil-based tests for GAF activity were performed as follows: Woodburn sandy loam obtained from a Willamette Valley site was used in all soil-based experiments. The soil was dried for two days at 100° F. and screened through a ⅛-inch mesh prior to use. All flats were lined with black ground cloth. Small half-flats (25×25 cm) were filled with 1200 grams of soil. Larger flats (25×50 cm) were filled with 2500 grams of soil. The soil in the flats was fully saturated with water and left to drain in a greenhouse mist chamber for two days prior to seeding.
Soil-based tests involving only Poa annua (annual bluegrass) were conducted in half-flats. A frame covering ½- inch around the margins of the flat was placed on the soil surface, and the soil area within the frame was seeded with 0.3 grams of Poa annua seeds (leaving a ½-inch unseeded border). The seeds were sprayed lightly with distilled water and placed in a growth chamber set at 20° C. with a photoperiod consisting of 8-hour days (50 μEinsteins) and 16-hour nights. […] The treatments were evaluated and photographic records taken 12 days after the initial treatment (14 days from seeding). […]
The effect of AVG on germination of seeds of Poa annua also was determined in a soil-based system using the protocol previously described. […]
The effect of AOA on the germination of Poa annua also was determined in a soil-based system. […]

Poa annua seeds [3] = assay: Soil-based test with established perennial ryegrass seedlings: germination of Poa annua seeds; format: in vivo; details: sprayed twice with 50 mL in 0.1% Tween 20, evaluated 12 days after first treatment
Protocol: as §1
(§2) Soil-based tests involving both Poa annua seeds and established perennial ryegrass (Lolium perenne) seedlings were conducted in full sized flats (25×50 cm). After preparation of the soil as described above, five rows of perennial ryegrass seed (0.19 grams seed/row) were planted parallel to the short axis of the flat. The flats were placed in a mist chamber in the greenhouse for one week, and then transferred to a greenhouse bench where they were watered once or twice daily (as needed) with a fogging nozzle for the next 13 days. The ryegrass seedlings were fertilized at the end of the first week on the greenhouse bench. […] The treatments were evaluated and photographic records taken 12 days after the initial treatment (14 days from seeding with Poa annua). […]

[4] = test system: established perennial ryegrass (Lolium perenne) seedlings; assay: Soil-based test with established perennial ryegrass seedlings: tolerance of the ryegrass; format: in vivo; details: at a concentration that arrested germination of Poa annua seeds
Protocol: as §1, §2

[5] = Solubility of GAF in organic solvents; format: physicochemical
Protocol: Further characterization of GAF described its size and solubility, as well as the stability of its activity over time and under varying temperature and pH conditions (see Banowetz et al., Biological Control, 50: 103-110, 2009; which is hereby incorporated by reference). […] GAF activity in culture filtrates stored at 4° C. diminishes over time, with 10% activity remaining after 17 months.
We have termed this compound a Germination Arrest Factor (GAF), and we have identified this compound as 2-amino-4-formylaminooxy-but-3-enoic acid (also called 2-amino-4-formylaminooxyvinylglycine). The presence of this compound in culture filtrates of Pseudomonas can be assessed by extraction and chromatography procedures described in Example 1. […] Moreover, GAF has particular chromatographic properties that allow it to be detected in the culture filtrates of GAF-producing organisms as a distinctive ninhydrin-staining band located at a particular position on thin-layer chromatography plates when the extraction and chromatography protocols specified here are followed. […] The presence of a DNA sequence that codes for an open reading frame that is distinctive for a particular putative formyl-transferase.

[6] = test system: seeds of grassy weeds and cultivated grasses; assay: Germination arrest / herbicidal activity against grassy weeds (general statements); details: in vivo
[7] = test system: seeds of cereals (wheat and barley) and dicots; assay: Germination of seeds of cereals and dicots in presence of GAF; format: in vivo; details: compared with seeds of grass species
Established seedlings = assay: Sensitivity of established seedlings to GAF; details: in vivo
[8] = cited from earlier work
[9] = exposure limited to a few hours

Row | Compound | GERMINATION SCORE IN THE POA BIOASSAY (±Standard Error of the Mean) ([1]; concentration tested 0.03 mM) | GERMINATION SCORE IN THE POA BIOASSAY (±Standard Error of the Mean) ([1]; concentration tested 0.1 mM) | GERMINATION SCORE IN THE POA BIOASSAY (±Standard Error of the Mean) ([1]; concentration tested 0.3 mM) | GERMINATION SCORE IN THE POA BIOASSAY (±Standard Error of the Mean) ([1]; concentration tested 1.0 mM) | GERMINATION SCORE IN THE POA BIOASSAY (±Standard Error of the Mean) ([1]; concentration tested 3.0 mM) | GERMINATION SCORE IN THE POA BIOASSAY (±Standard Error of the Mean) ([1]; concentration tested 10.0 mM) | GERMINATION SCORE IN THE POA BIOASSAY (±Standard Error of the Mean) ([1]; concentration tested 30.0 mM) | GAF-like activity in the Standard Poa Bioassay System, in words [1] | effect on germination of seeds of Poa annua in a soil-based system (Poa annua seeds [2]) | germination of Poa annua seeds seeded between rows of established ryegrass (Poa annua seeds [3]) | effect on established perennial ryegrass seedlings [4] | other results
1 | NOCC(=O)O [AOA, 2-Aminooxyacetic acid, reference compound] | 2.5 ± 0.1 | 1.7 ± 0.1 | 1.2 ± 0.1 | 1.0 ± 0.0 | 1.0 ± 0.0 | 1.0 ± 0.0 | 0.9 ± 0.1 | arrested the germination | arrested germination | arrested as expected | some damage was evident | –
2 | NCCOC=CC(N)C(=O)O (stereo not drawn) [AVG, 2-amino-4-aminoethoxy-but-3-enoic acid, reference compound] | 2.3 ± 0.1 | 1.3 ± 0.1 | 1.0 ± 0.0 | 1.0 ± 0.0 | 1.0 ± 0.0 | 1.0 ± 0.0 | 0.9 ± 0.1 | arrested the germination | arrest germination | completely arrested germination | little if any effect | –
3 | NC(/C=C/ONC=O)C(=O)O (stereo not drawn) [GAF, 2-amino-4-formylaminooxy-but-3-enoic acid] | – | – | – | – | – | – | – | – | – | – | – | POA BIOASSAY SCORES (±Standard Error of the Mean) ([1]; GAF Conc. 2X (relative to culture filtrate), partially purified GAF, metal 0 μM): 1.00 ± 0.00; activity of GAF in arresting germination in the presence of copper ions ([1]; appropriate concentrations of copper ions): greatly reduced; GERMINATION SCORE ([1]; pooled Sephadex G15 fractions, Undiluted Pooled Volume (100%)): 1.00; GERMINATION SCORE ([1]; 1.25% Pooled Volume Concentration): 1.92; GERMINATION SCORE ([1]; 2.5% Pooled Volume Concentration): 1.00; GERMINATION SCORE ([1]; 5% Pooled Volume Concentration): 1.00; GERMINATION SCORE ([1]; 10% Pooled Volume Concentration): 1.00; solubility in organic solvents [5]: insoluble or sparingly soluble in organic solvents; also recorded: insoluble in organic solvents that are immiscible in water; activity against grassy weeds, in words [6]: irreversibly arrests the germination; germination of seeds of cereals (wheat and barley) and dicots [7]: much less sensitive to GAF; sensitivity of established seedlings to GAF (Established seedlings): little if any sensitivity; GAF activity remaining ([8]; culture filtrates stored at 4° C., after 17 months): 10%; activity under basic as well as acidic conditions [8, 9]: remains active; temperature at which GAF remains active [8, 9]: up to 65 °C
